Source: US12403159B2, “Therapeutic metal complexes and ligands and methods of making and using the same” (Oregon State University, priority 2017, dated 2025)

Key:
[1] = system: Cu,Zn SOD (human SOD); test: Mass spectrometric assay of mature/immature SOD in CNS tissue of treated CCS×SOD^WT transgenic mice; format: in vivo; conditions: CSS×SOD^WT transgenic mice; for increase in mature SOD compared to untreated SOD^WT mice: FIG. 4
Procedure: Tissue Preparation for SOD and Cytochrome c Oxidase assays—Whole brains and spinal cords were rapidly dissected from euthanized transgenic mice, immediately frozen in liquid nitrogen, and then stored at −80° C. until use. To prepare brain tissue for mass spectrometry or cytochrome c oxidase assay, frozen brains were first placed on a plate on top of a slab of dry ice so that the brittle frozen tissue could warm to a temperature that allowed sectioning with a razor blade (approx. −10° C.). Motor cortex and surrounding cerebrum was then sectioned to a thickness of approximately 1 mm with a razor blade. A 500 μm biopsy needle was used to isolate three ˜250 μg punches from each mouse tissue, which provided technical replicates for mass spectrometry and cytochrome c oxidase examples. Tissue punches were weighed using a Cahn 25 Automatic Electrobalance (Cerritos, CA, USA) with a sensitivity of ±0.1 μg. Tissue punches were homogenized for 12 seconds using a VWR Handheld cordless motorized homogenizer to a concentration of 5 μg tissue/μl of homogenization buffer. Homogenization buffer (made fresh daily) was 10 mM ammonium acetate, pH 5.0-5.1. For SOD measurements, 300 nM bovine SOD (Sigma) was added as an internal standard. The ratio of human SOD to the bovine SOD internal standard was used to calculate the concentration of human SOD detected in mouse tissue. After homogenizing, samples were centrifuged for 2 minutes at 16000×g at 4° C. in an Eppendorf 5415 R centrifuge to pellet cell debris. Supernatant was transferred to a clean tube for mass spectrometry or cytochrome c oxidase assays. […]
An LTQ-FT Ultra hybrid linear ion trap-Fourier transform ion cyclotron resonance mass spectrometer (Thermo, San Jose, Calif.) with a Finnigan Ion Max API source configured for electrospray ionization (ESI) in positive ion mode was used for all mass spectrometry experiments. All SOD quantitation was performed using the linear ion trap with scan range of 800 to 2000 m/z, which allowed for detection of SOD multiple charge states +9 through +13. […]
Data were quantified in a custom Matlab program. […]

[2] = Reduction versus oxidation standard potentials (anhydrous DMSO); format: physicochemical; conditions: relative to CuPhMeTSM; FIG. 3
Excerpt: The low reduction potential or, phrased differently, the high copper affinity of the ATSM ligand for cupric ion (in the 2+ ionization state) prevents copper release in most tissues, but allows selective release of copper in hypoxic tissues or in cells with damaged mitochondrial electron transport chains; however, even slight modifications of the CuATSM compound (e.g., removing one or both methyl groups from the carbon atoms of the diimine functional groups) results in rapid copper release that can result in toxicity in SOD ALS models. […] Continued treatment thus is necessary to provide sufficient copper for CCS to complete the maturation of Cu,Zn SOD. But, such continued treatment also has the potential to cause toxicity due to greater copper intake. Furthermore, given the negative reduction potential of CuATSM, it is very difficult to reduce, which is reflected in the slow efficacy in replenishing SOD and COX extending over weeks. As a consequence, the majority of CuATSM (e.g., >95%) is eliminated in urine with copper still bound. […] See, for example, FIG. 3, which illustrates reduction (left) versus oxidation standard potentials (right) for ligand components (as determined in anhydrous DMSO). […]

[3] = Elimination of CuATSM in urine; conditions: in vivo
Excerpt: This crystallization and high melting point create issues with forming an orally-active CuATSM compound and prevents the use of solid dispersant methods to formulate the complex for oral delivery. As such, producing formulations having appropriate dosage limits of CuATSM remains a limitation in using this compound therapeutically, particularly in view of CuATSM's propensity to gradually crystalize out of matrices and form insoluble crystals. Large amounts of crystallized CuATSM passes into the bowels, and thereby contributes to gastrointestinal distress. […]
The low reduction potential or, phrased differently, the high copper affinity of the ATSM ligand for cupric ion (in the 2+ ionization state) prevents copper release in most tissues, but allows selective release of copper in hypoxic tissues or in cells with damaged mitochondrial electron transport chains; however, even slight modifications of the CuATSM compound (e.g., removing one or both methyl groups from the carbon atoms of the diimine functional groups) results in rapid copper release that can result in toxicity in SOD ALS models. […] See, for example, FIG. 3, which illustrates reduction (left) versus oxidation standard potentials (right) for ligand components (as determined in anhydrous DMSO). […]

[4] = system: cytochrome c oxidase; test: Cytochrome c oxidase assay in brain and spinal cord of treated mice; format: in vivo; conditions: brain (FIG. 7A) and spinal cord (FIG. 7B); dermally with DMSO, 50 mg/kg/day once daily from four days of age, measured at day 21
Procedure: Tissue Preparation for SOD and Cytochrome c Oxidase assays—Whole brains and spinal cords were rapidly dissected from euthanized transgenic mice, immediately frozen in liquid nitrogen, and then stored at −80° C. until use. To prepare brain tissue for mass spectrometry or cytochrome c oxidase assay, frozen brains were first placed on a plate on top of a slab of dry ice so that the brittle frozen tissue could warm to a temperature that allowed sectioning with a razor blade (approx. −10° C.). Motor cortex and surrounding cerebrum was then sectioned to a thickness of approximately 1 mm with a razor blade. […] The ratio of human SOD to the bovine SOD internal standard was used to calculate the concentration of human SOD detected in mouse tissue. […]
Cytochrome c oxidase assay—The assay buffer included 30 uM reduced cytochrome c in 50 mM potassium phosphate buffer pH 7.0 containing 20 μM EDTA and 24 units/ml catalase. The final dilution of reduced cytochrome c stock should yield an absorbance at 550 nm of 0.7. […] To minimize interference from turbidity, the absorbance at 550 nm minus the absorbance at 580 nm was monitored. The change in absorbance was measured for one minute. Then, 2 μl of 100 mM sodium cyanide and the absorbance change was monitored for another 20 seconds. […]

[5] = system: G93A SOD×CCS mice; test: Survival of G93A SOD×CCS mice under treatment; format: in vivo
Procedure: In this example, G93A SOD×CCS mice were treated with 50 mg/kg/day of CuPhMeTSM transdermally starting at 4 days of age. The compound was able to keep six G93A SOD×CCS mice alive for 300 days (n=6). Results are illustrated in FIG. 10.

[6] = system: juvenile mice; test: Effect of free ligands on growth of juvenile mice; format: in vivo
Excerpt: Another limitation is that the ATSM ligand component of the CuATSM complex is pharmacologically active in binding metals and thus can react in potentially undesirable side reactions.

Row | Molecule | effect on growth of juvenile mice [6] | increase in mature SOD compared to untreated SOD^WT mice [1] | increase in COX activity [4] | further results
1 | CN=C([S-])N/N=C(C)/C(C)=N/NC([S-])=NC.[Cu+2] [CuATSM] |  | 13 µM |  | oxidation wave: oxidized more easily than CuPhMeTSM by [2]: ~40 mV; fraction eliminated in urine with copper still bound [3]: > 95%
2 | CNC1=NN=C(C)C(c2ccccc2)=NN=C(NC)[S][Cu][S]1 [CuPhMeTSM, copper phenylmethylTSM] |  | 60 µM | nearly twice the extent of CuATSM | decrease in amount of immature SOD ([1]; FIG. 6): decreased most; toxicity from the treatment ([5]; G93A SOD×CCS mice, 50 mg/kg/day transdermally from 4 days of age): no toxicity apparent; time mice were kept alive ([5]; G93A SOD×CCS mice, 50 mg/kg/day transdermally from 4 days of age, n=6): 300 days; mice still alive after receiving treatment ([5]; low expressing G93A SOD mice crossed to CCS overexpressing mice, 50 mg/kg/day after four days of age, FIG. 10): nine out of 11
3 | copper 4-nitrophenylmethylTSM [nitro analog] |  |  | not as effective as the CuPhMeTSM embodiment | 

Further lines, with some results ahead:

Row | effect on growth of juvenile mice [6] | Molecule | increase in mature SOD compared to untreated SOD^WT mice [1] | increase in COX activity [4] | further results
4 | significant delay in growth | CN/C(S)=N/N=C/C=N/N=C(\S)NC [GTSM] |  |  | 
5 | significant delay in growth | CN/C(S)=N/N=C/C(C)=N/N=C(\S)NC [PTSM] |  |  | 
